ChEMBL document CHEMBL4316584, “All that glitters is not gold: Panning cytotoxic natural products and derivatives with a fused tricyclic backbone by the estimation of their leadlikeness for cancer treatment” (Eur J Med Chem, 2019)

tested on: MCF7; assay: Cytotoxicity against human MCF7 cells after 48 hrs by MTT assay; assay type: functional, cell-based; conditions: MCF7, 48 h

| SMILES | IC50 [µM] |
| --- | --- |
| O=C1C(=O)c2cccnc2-c2ncccc21 | 0.58 |
| COc1cc(-c2nc(/C=C/C(=O)c3ccc(N)cc3)cc3c2[nH]c2ccccc23)cc(OC)c1OC | 14.6 |
| COc1cc(O)c(C(CO)C(O)CO)c2oc3cccc(O)c3c(=O)c12 (stereo not drawn) | 9.7 |
| C=C[C@@]1(C)C=C2[C@@H](O[C@@H]3O[C@H](C)[C@H](O)[C@H](O)[C@H]3O)C[C@@H]3C(C)(C)[C@H](O[C@@H]4O[C@@H](C)[C@H](O)[C@@H](O)[C@H]4O[C@H]4O[C@H](CO)[C@@H](O)[C@H](O)[C@H]4O)CC[C@@]3(C)[C@@H]2CC1 | 5.6 |
| C=C[C@@]1(C)C=C2[C@@H](O[C@@H]3O[C@H](C)[C@H](O)[C@H](O)[C@H]3O)C[C@@H]3C(C)(C)[C@H](O[C@@H]4O[C@@H](C)[C@H](O)[C@@H](O)[C@H]4O)CC[C@@]3(C)[C@@H]2CC1 | 10.2 |
| COc1cc(O)c2c(c1O)C(=O)C1=C(C2=O)C(O)C(O)C(C)(O)C1 (stereo not drawn) | 7.5 |
| COc1cc(C(=O)/C=C/c2cc3c([nH]c4ccccc43)c(-c3ccc(F)c(F)c3)n2)cc(OC)c1OC | 8.7 |
| C[C@]1(O)Cc2c(O)c3c(c(O)c2[C@H](O)[C@H]1O)C(=O)C=C(N1CCC(c2ccccc2)CC1)C3=O | 4.81 |
| CCCCCCNC1=CC(=O)c2c(O)c3c(c(O)c2C1=O)C[C@](C)(O)[C@H](O)[C@H]3O | 4.87 |
| C#CCOc1cc(O)c2c(c1)C(=O)c1cc(C)cc(O)c1C2=O | 20 |
| CCCCNC1=CC(=O)c2c(O)c3c(c(O)c2C1=O)C[C@](C)(O)[C@H](O)[C@H]3O | 1.08 |
| COC1=C(C)C(O)=CC2C(=O)c3c(ccc(OC)c3OC)C(=O)C12 (stereo not drawn) | 10.2 |
| CCCNC1=CC(=O)c2c(O)c3c(c(O)c2C1=O)C[C@](C)(O)[C@H](O)[C@H]3O | 14 |
| C=C[C@@]1(C)C=C2[C@@H](O[C@@H]3O[C@H](C)[C@H](O)[C@H](O)[C@H]3O)C[C@@H]3C(C)(C)[C@H](O[C@@H]4O[C@@H](C)[C@H](O)[C@@H](O)[C@H]4O[C@H]4O[C@H](C)[C@H](O)[C@H](O)[C@H]4O)CC[C@@]3(C)[C@@H]2CC1 | 4.7 |
| CNC1=CC(=O)c2c(O)c3c(c(O)c2C1=O)C[C@](C)(O)[C@H](O)[C@H]3O | 3.58 |
| CCCCSC1=C(SCCCC)C(=O)c2c(O)c3c(c(O)c2C1=O)C[C@](C)(O)[C@H](O)[C@H]3O | 2.45 |
| COC(=O)c1ccc2c(=O)c3c(O)cc(CCO)cc3oc2c1O | 2.7 |
| C[C@]1(O)Cc2c(O)c3c(c(O)c2[C@H](O)[C@H]1O)C(=O)C(SCCO)=C(SCCO)C3=O | 14.4 |
| Nc1ccc(C(=O)/C=C/c2cc3c([nH]c4ccccc43)c(-c3ccc(F)c(F)c3)n2)cc1 | 10.5 |
| COc1ccc2oc3ccccc3c(=O)c2c1O | 16.5 |
| COC(=O)c1cccc2oc3cc(CCO)cc(O)c3c(=O)c12 | 4.6 |
| C[C@]1(O)Cc2c(O)c3c(c(O)c2[C@H](O)[C@H]1O)C(=O)C=C(N1CCCCC1)C3=O | 3.14 |
| Cc1cc(O)c2c(c1)C(=O)c1cc(OCCN(C)C)cc(O)c1C2=O | 4.5 |
| COc1ccc(CNC2=CC(=O)c3c(O)c4c(c(O)c3C2=O)C[C@](C)(O)[C@H](O)[C@H]4O)cc1 | 9.17 |
| CC(CO)c1cc2c(c(O)c1O)C[C@@]1(O)CCCC(C)(C)[C@@H]1CC2 (stereo partly drawn) | 16 |
| CC(CO)c1cc(O)c2c(c1)[C@@H](O)C[C@H]1C(C)(C)CCC[C@]1(O)C2 (stereo partly drawn) | 15.8 |
| CC(CO)c1cc(O)c2c(c1)CC[C@H]1C(C)(C)CCC[C@]1(O)C2 (stereo partly drawn) | 10.8 |

tested on: A549; assay: Cytotoxicity against human A549 cells after 48 hrs by MTT assay; assay type: functional, cell-based; conditions: Homo sapiens, A549, 48 h

| SMILES | IC50 [µM] |
| --- | --- |
| CC(C)=CCc1c(O)c(CC=C(C)C)c2oc3ccc(O)cc3c(=O)c2c1O | 8.85 |
| CC(C)c1cc2c(cc1O)[C@@]1(C)CCC[C@](C)(CO)[C@@H]1CC2 | 14 |
| O=c1c2ccccc2oc2cc(O)ccc12 | 14.6 |
| COC(=O)c1c(O)ccc2oc3cc(C)cc(O)c3c(=O)c12 | 5.2 |
| COc1ccc(C(=O)/C=C/c2cc3c([nH]c4ccccc43)c(-c3ccc(F)cc3)n2)cc1 | 8.43 |
| O=C(/C=C/c1cc2c([nH]c3ccccc32)c(-c2ccc(C(F)(F)F)cc2)n1)c1ccco1 | 2.57 |
| COc1ccc(C(=O)/C=C/c2cc3c([nH]c4ccccc43)c(-c3ccc(F)c(OC)c3)n2)cc1 | 5.1 |
| COc1cc(-c2nc(/C=C/C(=O)c3ccc(N)cc3)cc3c2[nH]c2ccccc23)cc(OC)c1OC | 11.8 |
| CC(=O)N1N=C(c2ccco2)CC1c1cc2c([nH]c3ccccc32)c(-c2ccc(C(F)(F)F)cc2)n1 (stereo not drawn) | 2.39 |
| COc1ccc(C(=O)/C=C/c2cc3c([nH]c4ccccc43)c(-c3cc(OC)c(OC)c(OC)c3)n2)cc1 | 9.61 |
| O=C(/C=C/c1cc2c([nH]c3ccccc32)c(-c2ccc(F)cc2)n1)c1ccc(F)cc1 | 5.65 |
| CC1=CC2C(=O)c3nccc(N(C)C)c3C(=O)C2N=C1 (stereo not drawn) [listing 1 of 2 here] | 3.29 |
| Cc1cnc2c(c1)C(=O)C1N=CC=C(C=O)C1C2=O (stereo not drawn) | 0.33 |
| Cc1cnc2c(c1)C(=O)C1C=CC=NC1C2=O (stereo not drawn) | 2.23 |
| CC1=CC2C(=O)c3nccc(I)c3C(=O)C2N=C1 (stereo not drawn) | 0.14 |
| CC(=O)N1N=C(c2ccc(N)cc2)CC1c1cc2c([nH]c3ccccc32)c(-c2ccc(F)c(F)c2)n1 (stereo not drawn) | 9.77 |
| CC(=O)N1N=C(c2ccc(N)cc2)CC1c1cc2c([nH]c3ccccc32)c(-c2ccc(C(F)(F)F)cc2)n1 (stereo not drawn) | 13.2 |
| O=C1c2c(O)ccnc2C(=O)C2C(c3ccccc3)=CC=NC12 (stereo not drawn) | 14.5 |
| O=C(/C=C/c1cc2c([nH]c3ccccc32)c(-c2ccc(F)c(F)c2)n1)c1cccs1 | 6.76 |

| SMILES | IC50 [µM] |
| --- | --- |
| CCN(CC)CC1CCc2c(n(C)c3ccccc23)C1=O (stereo not drawn) | 0.07 |
| C=C[C@@]1(C)C=C2[C@@H](O[C@@H]3O[C@H](C)[C@H](O)[C@H](O)[C@H]3O)C[C@@H]3C(C)(C)[C@H](O[C@@H]4O[C@@H](C)[C@H](O)[C@@H](O)[C@H]4OC(C)=O)CC[C@@]3(C)[C@@H]2CC1 | 10.4 |
| CC(C)(O)c1ccc2c(c1)C(=O)C[C@H]1C(C)(C)CCC[C@]21C | 14 |
| Cc1cnc2c(c1)C(=O)C1N=CC=C(/C=C/C#N)C1C2=O (stereo not drawn) | 7.88 |
| Nc1ccc(C(=O)/C=C/c2cc3c([nH]c4ccccc43)c(-c3ccc(C(F)(F)F)cc3)n2)cc1 | 2.95 |
| CC(=O)N1N=C(c2ccco2)CC1c1cc2c([nH]c3ccccc32)c(-c2cccc(Cl)c2)n1 (stereo not drawn) | 15.4 |
| COC(=O)c1ccc2c(=O)c3c(OC)cc(CCO)cc3oc2c1O | 4.8 |
| Cc1cnc2c(c1)C(=O)C1N=CC=CC1C2=O (stereo not drawn) | 3.72 |
| COc1cc(-c2nc(/C=C/C(=O)c3ccco3)cc3c2[nH]c2ccccc23)cc(OC)c1OC | 3.8 |
| CC1CCN(CC2CCc3c(n(C)c4ccccc34)C2=O)CC1 (stereo not drawn) | 0.71 |
| COc1cc(-c2nc(C3CC(c4ccco4)=NN3C(C)=O)cc3c2[nH]c2ccccc23)cc(OC)c1OC (stereo not drawn) | 3.2 |
| O=C(/C=C/c1cc2c([nH]c3ccccc32)c(-c2ccc(F)c(F)c2)n1)c1ccco1 | 9.54 |
| CC1=CC2C(=O)c3nccc(Cl)c3C(=O)C2N=C1 (stereo not drawn) | 13.7 |
| CN(Cc1ccccc1)CC1CCc2c(n(C)c3ccccc23)C1=O (stereo not drawn) | 14.1 |
| COc1cc(C2=NN(C(C)=O)C(c3cc4c([nH]c5ccccc54)c(-c4ccc(F)c(F)c4)n3)C2)cc(OC)c1OC (stereo not drawn) | 11 |
| COc1ccnc2c1C(=O)C1N=CC=C(c3ccccc3)C1C2=O (stereo not drawn) | 10.6 |
| O=C(/C=C/c1cc2c([nH]c3ccccc32)c(-c2cccc(Cl)c2)n1)c1ccco1 | 18.6 |
| O=C1c2c(O)ccc(O)c2C(=O)c2c(NCCNCCO)ccc(NCCNCCO)c21 [MITOXANTRONE] | 7.25 |

same assay, conditions: a549

| SMILES | IC50 [µM] |
| --- | --- |
| CC1=CC2C(=O)c3nccc(N(C)C)c3C(=O)C2N=C1 (stereo not drawn) [listing 2 of 2 here] | 3.12 |

tested on: HepG2; assay: Cytotoxicity against human HepG2 cells after 48 hrs by MTT assay; assay type: functional, cell-based; conditions: HepG2, 48 h

| SMILES | IC50 [µM] |
| --- | --- |
| CC(C)=CCC/C(C)=C/COc1cc(O)c2c(c1)C(=O)c1cc(C)cc(O)c1C2=O | 15 |
| CC(C)=CCc1c(O)c(CC=C(C)C)c2oc3cc(O)ccc3c(=O)c2c1O | 18.7 |
| O=c1c2cc(O)ccc2oc2cc(O)cc(O)c12 | 18.3 |
| O=c1c2ccccc2oc2cc(O)cc(O)c12 | 19.5 |
| Cc1cc(O)c2c(c1)C(=O)c1cc(O)c(CN3CCOCC3)c(O)c1C2=O | 17.9 |
| CC(C)=CCc1c(O)cc2oc3cccc(O)c3c(=O)c2c1O | 1.49 |
| Cc1cc(O)c2c(c1)C(=O)c1cc(O)c(CN3CCN(c4ccc(F)cc4)CC3)c(O)c1C2=O | 10.4 |
| CCOP(=O)(OCC)C(C)(NC(=O)c1cc(O)c2c(c1)C(=O)c1cccc(O)c1C2=O)c1ccc(C)cc1 (stereo not drawn) | 15.1 |
| O=C(NCCN1CCOCC1)c1cc(O)c2c(c1)C(=O)c1cc(O)cc(O)c1C2=O | 20 |
| CCN(CC)CCOc1cc(O)c2c(c1)C(=O)c1cc(C)cc(O)c1C2=O | 5.64 |
| CC(C)=CCc1c(O)cc2oc3ccccc3c(=O)c2c1O | 9.81 |
| O=C(NCCN1CCCCC1)c1cc(O)c2c(c1)C(=O)c1cc(O)cc(O)c1C2=O | 19 |
| CCn1c2ccccc2c2cc(C3=NCCc4c3[nH]c3ccccc43)ccc21 | 2.3 |
| CCOP(=O)(OCC)C(C)(NC(=O)c1cc(O)c2c(c1)C(=O)c1cccc(O)c1C2=O)c1ccccc1 (stereo not drawn) | 18.2 |
| CCSC1=C(SCC)C(=O)c2c(O)c3c(c(O)c2C1=O)C[C@@H](O)[C@@](C)(O)C3 | 11.6 |
| CCOP(=O)(OCC)C(C)(CCc1ccccc1)NC(=O)c1cc(O)c2c(c1)C(=O)c1cccc(O)c1C2=O (stereo not drawn) | 8.82 |
| C[C@]1(O)Cc2c(O)c3c(c(O)c2C[C@H]1O)C(=O)C=C(N1CCC(c2ccccc2)CC1)C3=O | 11.8 |
| O=c1c2ccc(O)cc2oc2cccc(O)c12 | 18.4 |

tested on: HCT-116; assay: Cytotoxicity against human HCT116 cells after 48 hrs by MTT assay; assay type: functional, cell-based; conditions: HCT-116, 48 h

| SMILES | IC50 [µM] |
| --- | --- |
| COc1cc(O)c2c(c1)C(=O)C1=C(C[C@@H](O)[C@@](C)(O)[C@@H]1O)C2=O [ALTERSOLANOL C] | 3.03 |
| COC1=CC(=O)c2c(O)c3c(c(O)c2C1=O)C[C@](C)(O)[C@H](O)[C@H]3O [BOSTRYCIN] | 4.78 |
| CC(=O)O[C@@H]1[C@H](C)CC(O)=C2C(=O)c3c(ccc(-c4ccc5c(c4O)C(=O)C4=C(O)C[C@@H](C)[C@@H](OC(C)=O)[C@@]4(CO)O5)c3O)O[C@@]21CO [DICERANDROL A] | 2.64 |
| CC(=O)OC[C@]12Oc3ccc(-c4ccc5c(c4O)C(=O)C4=C(O)C[C@@H](C)[C@@H](OC(C)=O)[C@@]4(CO)O5)c(O)c3C(=O)C1=C(O)C[C@@H](C)[C@H]2OC(C)=O [DICERANDROL B] | 3.94 |
| COC1=CC(=O)c2c(cc3c(c2O)C[C@@H](O)[C@@](C)(O)C3)C1=O [NIGROSPORIN B] | 4.7 |
